Laboratory results taken from ChEMBL document CHEMBL1136629, “Amphipathic 3-phenyl-7-propylbenzisoxazoles; human pPaR gamma, delta and alpha agonists” (Bioorg Med Chem Lett, 2003).

Experiments:
[1] = target: T1, Peroxisome proliferator-activated receptor gamma (Homo sapiens, UniProt P37231); assay: In vitro binding affinity towards human peroxisome proliferator activated receptor gamma (PPAR gamma)
T1 sequence (P37231 whole entry): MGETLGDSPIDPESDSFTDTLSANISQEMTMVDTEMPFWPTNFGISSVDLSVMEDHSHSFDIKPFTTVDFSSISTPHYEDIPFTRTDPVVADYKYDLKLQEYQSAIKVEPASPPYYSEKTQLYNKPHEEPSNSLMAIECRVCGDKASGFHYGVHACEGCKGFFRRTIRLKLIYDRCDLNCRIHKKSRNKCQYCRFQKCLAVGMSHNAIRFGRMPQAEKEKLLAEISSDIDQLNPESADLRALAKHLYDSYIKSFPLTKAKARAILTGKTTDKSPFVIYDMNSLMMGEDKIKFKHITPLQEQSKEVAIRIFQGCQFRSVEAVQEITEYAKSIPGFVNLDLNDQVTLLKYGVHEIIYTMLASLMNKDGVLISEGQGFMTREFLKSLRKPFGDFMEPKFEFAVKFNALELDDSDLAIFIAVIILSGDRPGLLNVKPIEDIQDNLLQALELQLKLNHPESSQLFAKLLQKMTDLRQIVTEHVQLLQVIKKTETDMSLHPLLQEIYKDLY

[2] = target: T2, Peroxisome proliferator-activated receptor alpha (Homo sapiens, UniProt Q07869); assay: In vitro binding affinity towards human peroxisome proliferator activated receptor alpha (PPAR alpha)
T2 sequence (Q07869 whole entry): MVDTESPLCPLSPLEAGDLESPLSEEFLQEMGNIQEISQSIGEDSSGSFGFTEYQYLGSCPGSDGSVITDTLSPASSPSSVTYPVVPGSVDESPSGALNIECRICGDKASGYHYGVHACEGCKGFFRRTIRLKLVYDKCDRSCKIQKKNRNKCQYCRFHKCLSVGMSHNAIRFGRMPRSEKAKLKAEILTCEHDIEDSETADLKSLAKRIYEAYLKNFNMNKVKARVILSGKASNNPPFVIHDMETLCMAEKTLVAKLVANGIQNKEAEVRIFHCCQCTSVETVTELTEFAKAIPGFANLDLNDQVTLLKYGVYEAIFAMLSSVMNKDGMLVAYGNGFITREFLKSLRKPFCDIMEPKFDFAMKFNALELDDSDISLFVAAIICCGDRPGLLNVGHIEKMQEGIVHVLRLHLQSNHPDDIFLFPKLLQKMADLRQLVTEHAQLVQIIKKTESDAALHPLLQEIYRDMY

[3] = target: T3, Peroxisome proliferator-activated receptor delta (Homo sapiens, UniProt Q03181)
T3 sequence (Q03181 whole entry): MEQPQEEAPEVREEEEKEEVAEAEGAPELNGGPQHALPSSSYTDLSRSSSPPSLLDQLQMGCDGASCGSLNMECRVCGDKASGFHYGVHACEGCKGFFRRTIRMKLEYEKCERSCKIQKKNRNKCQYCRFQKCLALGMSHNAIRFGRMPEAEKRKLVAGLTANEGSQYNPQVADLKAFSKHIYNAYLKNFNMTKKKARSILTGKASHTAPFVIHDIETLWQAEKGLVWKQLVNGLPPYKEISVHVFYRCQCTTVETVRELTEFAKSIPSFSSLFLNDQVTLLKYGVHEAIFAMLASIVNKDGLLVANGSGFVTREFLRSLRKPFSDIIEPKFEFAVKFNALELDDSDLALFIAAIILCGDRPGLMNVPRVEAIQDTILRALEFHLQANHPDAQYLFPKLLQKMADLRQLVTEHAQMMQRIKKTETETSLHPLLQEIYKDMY
Description: In vitro binding affinity towards human peroxisome proliferator activated receptor delta (PPAR delta)

[4] = target: T1, Peroxisome proliferator-activated receptor gamma; assay: Agonistic activity was determined in COS1 cells transfected with GAL 4-PPAR gamma receptor; type: functional, cell-based, COS-1
[5] = target: T2, Peroxisome proliferator-activated receptor alpha; assay: Agonistic activity was determined in COS1 cells transfected with GAL 4-PPAR alpha receptor; type: functional, cell-based, COS-1
[6] = target: T3, Peroxisome proliferator-activated receptor delta; assay: Agonistic activity was determined in COS1 cells transfected with GAL 4-PPAR delta receptor; type: functional, cell-based, COS-1
[7] = AUC of compound for a 2 mpk po dose of the sodium salt in rats.; type: ADME, organism-based; details: rat, plasma, 2 mg/kg
[8] = Bioavailability of compound was determined; type: ADME, organism-based; details: eutheria, in vivo
[9] = target: T4, Peroxisome proliferator-activated receptor gamma (Homo sapiens) (UniProt P37231); assay: Agonistic transcriptional activity in COS1 cells expressing GAL 4-PPAR gamma at 3 uM; Maximal percent; type: functional, cell-based; details: COS-1
T4 sequence (whole entry): T1 sequence (P37231 whole entry)

[10] = target: T5, Peroxisome proliferator-activated receptor alpha (Homo sapiens) (UniProt Q07869); assay: Agonistic transcriptional activity in COS1 cells expressing GAL 4-PPAR alpha at 3 uM; Maximal percent; type: functional, cell-based; details: COS-1
T5 sequence (whole entry): T2 sequence (Q07869 whole entry)

| Ki [1] | Ki [2] | Ki [3] | EC50 [4] | EC50 [5] | EC50 [6] | AUC [7] | bioavailability [8] | activation [10] | SMILES | Emax (% of standard agonist) [9] |
| --- | --- | --- | --- | --- | --- | --- | --- | --- | --- | --- |
| 115 nM | 329 nM | 52 nM |  |  |  |  |  |  | CCCc1c(OCCCCOc2cccc(CCC(=O)O)c2)ccc2c(-c3ccccc3)noc12 |  |
|  | 3 nM | 5 nM | 194 nM | 3 nM | 147 nM |  |  |  | CCCc1c(OCCCOc2ccc(CC(=O)O)cc2)ccc2c(-c3ccccc3)noc12 |  |
| 20 nM | 13 nM | 317 nM | 20 nM | 4 nM | 860 nM |  |  |  | CCCc1c(OCCCCOc2ccc(CC(C)(C)C(=O)O)cc2)ccc2c(-c3ccccc3)noc12 |  |
| 498 nM | 489 nM | 62 nM |  |  |  |  |  |  | CCCc1c(OCCCOc2ccccc2CC(=O)O)ccc2c(-c3ccccc3)noc12 |  |
| 616 nM | 305 nM | 156 nM |  | 33 nM |  |  |  |  | CCCc1c(OCCOc2ccc(CCCC(=O)O)cc2)ccc2c(-c3ccccc3)noc12 | 72% |
|  |  |  |  |  |  |  |  | 3% | CN(CCOc1ccc(CC2SC(=O)NC2=O)cc1)c1ccccn1 (centres undefined) |  |
| 145 nM | 121 nM | 38 nM | 156 nM | 3 nM | 183 nM |  |  |  | CCCc1c(OCCCOc2ccc(CCCC(=O)O)cc2)ccc2c(-c3ccccc3)noc12 |  |
| 8.9 nM | 7.6 nM | 37.5 nM | 485 nM | 429 nM |  |  |  |  | CCCc1c(OCCCCOc2ccc(CCC(=O)O)cc2)ccc2c(-c3ccccc3)noc12 |  |
| > 5300 nM | 920 nM | > 14000 nM |  |  |  |  |  |  | CCCc1c(OCCCCOc2ccc(C(=O)O)cc2)ccc2c(-c3ccccc3)noc12 |  |
| 34 nM | 8.1 nM | 3.7 nM | 75 nM | 4 nM | 16 nM |  |  |  | CCCc1c(OCCCOc2ccc(OCC(=O)O)cc2)ccc2c(-c3ccccc3)noc12 |  |
| 152 nM | 50 nM | 18 nM | 254 nM |  | 148 nM |  |  | 56% | CCCc1c(OCCCOc2ccc(/C=C/C(=O)O)cc2)ccc2c(-c3ccccc3)noc12 |  |
| 52 nM | 213 nM | 529 nM | 37 nM | 53 nM |  |  |  |  | CCCc1c(OCCCCOc2ccc(C(C)(C)CC(=O)O)cc2)ccc2c(-c3ccccc3)noc12 |  |
| 100 nM | 5.2 nM | 508 nM | 193 nM | 8 nM |  |  |  |  | CCCc1c(OCCCCOc2cccc(C(=O)O)c2)ccc2c(-c3ccccc3)noc12 |  |
| 17 nM | 23 nM | 203 nM | 10 nM | 2 nM |  |  |  |  | CCCc1c(OCCCCOc2ccc(C(C)(C)C(=O)O)cc2)ccc2c(-c3ccccc3)noc12 |  |
| 26 nM | 46 nM | 165 nM | 52 nM | 50 nM | 400 nM |  |  |  | CCCc1c(OCCCCOc2cccc(C(C)(C)C(=O)O)c2)ccc2c(-c3ccccc3)noc12 |  |
| 448 nM | 53 nM | 21 nM |  |  |  |  |  |  | CCCc1c(OCCCOc2cccc(CCC(=O)O)c2)ccc2c(-c3ccccc3)noc12 |  |
| 1330 nM | > 33300 nM | 3520 nM |  |  |  |  |  |  | CCCc1c(OCCCOc2ccccc2CCC(=O)O)ccc2c(-c3ccccc3)noc12 |  |
| 13 nM | 18 nM | 265 nM | 29 nM | 13 nM | 640 nM |  |  |  | CCCc1c(OCCCCOc2ccc(/C=C/C(=O)O)cc2)ccc2c(-c3ccccc3)noc12 |  |

Continued, molecule first:

| SMILES | Ki [1] | Ki [2] | Ki [3] | EC50 [4] | EC50 [5] | EC50 [6] | AUC [7] | bioavailability [8] | activation [10] | Emax (% of standard agonist) [9] |
| --- | --- | --- | --- | --- | --- | --- | --- | --- | --- | --- |
| CCCc1c(OCCCCOc2ccc(OC(C)C(=O)O)cc2)ccc2c(-c3ccccc3)noc12 (centres undefined) | 20 nM | 47 nM | 136 nM | 16 nM | 2 nM |  |  |  |  |  |
| CCCc1c(OCCOc2ccc(CCC(=O)O)cc2)ccc2c(-c3ccccc3)noc12 | 304 nM |  | 11 nM |  |  |  |  |  |  |  |
| CCCc1c(OCCCCOc2cccc(CC(=O)O)c2)ccc2c(-c3ccccc3)noc12 | 3.1 nM | 7.2 nM | 0.3 nM | 6 nM | 5 nM | 20 nM | 4.2 µM·h | 76% |  |  |
| CCCc1c(OCCCCOc2ccc(CC(=O)O)cc2)ccc2c(-c3ccccc3)noc12 | 30 nM | 7 nM | 93 nM | 60 nM | 8 nM |  |  |  |  |  |
| CCCc1c(OCCCSc2ccc(CC(=O)O)cc2Cl)ccc2c(-c3ccccc3)noc12 | 11 nM | 14 nM | 3.7 nM | 4 nM | 3 nM | 3 nM |  |  |  |  |
| CCCc1c(OCCCOc2ccc(OC(C)C(=O)O)cc2)ccc2c(-c3ccccc3)noc12 (centres undefined) | 22 nM | 9.3 nM | 4.6 nM | 27 nM | 2 nM | 13 nM |  |  |  |  |
| CCCc1c(OCCCCOc2ccccc2CC(=O)O)ccc2c(-c3ccccc3)noc12 | 348 nM | 86 nM | 47 nM |  |  |  |  |  |  |  |
| CCCc1c(OCCCOc2ccc(CCC(=O)O)cc2)ccc2c(-c3ccccc3)noc12 | 32 nM | 7.3 nM | 2 nM |  |  |  |  |  | 42% | 99% |
| CCCc1c(OCCCOc2cccc(CC(=O)O)c2)ccc2c(-c3ccccc3)noc12 | 662 nM | 76 nM | 26 nM |  |  |  |  |  |  |  |
| CCCc1c(OCCCCOc2cccc(OCC(=O)O)c2)ccc2c(-c3ccccc3)noc12 | 52 nM | 133 nM | 47 nM | 87 nM | 248 nM |  |  |  |  |  |
| CCCc1c(OCCCCOc2ccc(OC(C)(C)C(=O)O)cc2)ccc2c(-c3ccccc3)noc12 | 2.4 nM |  | 23 nM | 2 nM |  | 172 nM |  |  |  |  |
| CCCc1c(OCCCCOc2cccc(OC(C)(C)C(=O)O)c2)ccc2c(-c3ccccc3)noc12 | 41 nM | 255 nM | 110 nM | 100 nM | 92 nM |  |  |  |  |  |
